These results are taken from US7358276B2, “2-Oxo-1-pyrrolidine derivatives, processes for preparing them and their uses” (UCB, S.A., priority 2000, dated 2008).

Structures are written as SMILES.

The conditions of series [1]: A. J. GOWER et al., Eur. J. Pharmacol., 222, (1992), 193-203; cited from earlier work.
Series [2] concerns the target T1, Levetiracetam Binding Site (LBS), rat cerebral cortex membranes (Rattus norvegicus, UniProt Q02563).
T1 construct: The crude membrane pellet obtained is resuspended in 50 mmol/l Tris-HCl (pH 7.4); from tissue; host or cells: rat cerebral cortex crude membranes (male Sprague-Dawley)
Kind of series: LBS binding assay (competitive binding, [3H]-2-[4-(3-azidophenyl)-2-oxo-1-pyrrolidinyl]butanamide). The conditions noted are these: 4° C., 120 min.

Series [3] concerns audiogenic seizures in sound-susceptible mice. Kind of series: Animal model of sound-susceptible mice (audiogenic seizures). Type of series: in vivo. The note with it: intraperitoneally 60 minutes before induction of audiogenic seizures; doses given in mol/kg. A digest of the protocol:
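Genetically sound-sensitive DBA-derived mice (14-28 g, N=10 per group) received test compound or vehicle i.p. 60 min before a 30 s acoustic stimulus (90 dB, 10-20 kHz). Protection against wild running, clonic and tonic convulsions was scored. ED50 with 95% confidence limits was obtained by probit analysis for each phase.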

T1 sequence (Q02563 whole entry): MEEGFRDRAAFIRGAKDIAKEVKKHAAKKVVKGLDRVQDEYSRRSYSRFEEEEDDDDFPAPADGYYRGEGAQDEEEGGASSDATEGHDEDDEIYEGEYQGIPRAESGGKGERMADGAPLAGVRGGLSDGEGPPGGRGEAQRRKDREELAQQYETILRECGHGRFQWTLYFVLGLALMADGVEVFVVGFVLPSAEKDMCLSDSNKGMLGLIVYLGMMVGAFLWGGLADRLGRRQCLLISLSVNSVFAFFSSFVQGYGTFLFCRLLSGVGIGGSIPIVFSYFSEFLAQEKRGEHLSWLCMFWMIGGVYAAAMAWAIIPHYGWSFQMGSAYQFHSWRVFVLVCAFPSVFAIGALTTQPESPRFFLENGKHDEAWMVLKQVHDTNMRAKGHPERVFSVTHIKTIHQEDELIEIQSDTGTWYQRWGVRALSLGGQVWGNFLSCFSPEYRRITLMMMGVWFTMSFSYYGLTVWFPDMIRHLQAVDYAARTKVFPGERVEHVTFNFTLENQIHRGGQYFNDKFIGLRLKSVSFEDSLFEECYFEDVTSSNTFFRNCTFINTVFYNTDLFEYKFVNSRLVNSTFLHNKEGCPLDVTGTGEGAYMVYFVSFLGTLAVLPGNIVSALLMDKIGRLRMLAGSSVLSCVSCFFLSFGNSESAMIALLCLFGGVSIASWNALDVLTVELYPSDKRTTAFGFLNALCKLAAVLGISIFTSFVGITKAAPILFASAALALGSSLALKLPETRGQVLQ

Take `CC[C@H](C(N)=O)N1CCCC1=O` [(R)-α-ethyl-2-oxo-1-pyrrolidine acetamide]: the “activity in the treatment of epilepsy” value in series [1] is on record as “completely lacks activity”.
By melting point is commonly meant the temperature of the solid-liquid transition. In turn, `CC[C@@H](C(N)=O)N1CC(CC(C)=O)CC1=O` (some centres unmarked) [Compound 229] showed a melting point of 90.6 °C. In addition, in series [2], the “pKi (affinity for the levetiracetam binding site)” value is listed as “Particular affinity”. Moreover, the “ED50 (dose producing 50% protection against audiogenic seizures)” value in series [3] is reported as “Particularly promising activity”.
In the same order, the values of `CCCC1(C)CC(=O)N([C@@H](CC)C(N)=O)C1` (some centres unmarked) [Compound 250] are 133.3 °C, “Particular affinity” and “Particularly promising activity”.
For `CCC(C(N)=O)N1CC(C#CBr)CC1=O` (centres unmarked) [Compound 264] the same measures were 173.2 °C, “Particular affinity” and “Particularly promising activity”.
Regarding `CC[C@@H](C(N)=O)N1CCCC1=O` [Levetiracetam, (S)-α-ethyl-2-oxo-1-pyrrolidine acetamide], in series [1], the “activity in the treatment of epilepsy” value is listed as “effective in the treatment of epilepsy”.
